Data reported in PubChem BioAssay AID2742 (NMMLSC, 2010).
Several values for one entry are separate records, joined by “and”; a condition that tells them apart may be missing. Identical values can stand only once. Activity calls are given as the source filed them.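 Rule for the calls: active = fitted half-maximal concentration for changing background-corrected GFP signal at or below a set limit; inactive = the rest.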

Assay: TOR pathway reporter MEP2-GFP, concentration series – S. cerevisiae, flow cytometry GFP, MLPCN hits, dose response (AID 2742);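 note: GFP tag reports level of MEP2 protein as a downstream target of TOR signalling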
Conditions: S. cerevisiae MEP2-GFP strain, flow cytometry fluorescence, 3 h; at 33 µM (top of the series)

## O=C1c2ccccc2C(=O)N1OS(=O)(=O)c1ccc(F)cc1
  GFP fluorescence (kMESF), higher = increase: 3.26 kMESF (inactive)

## Cc1ccc(C(=O)/C=C/C(=O)c2ccc(C)cc2)cc1
  GFP fluorescence (kMESF), higher = increase: 3.81 kMESF (inactive)

## N/C(=N\OC(=O)c1ccccc1Cl)c1ccc(Cl)cc1
  GFP fluorescence (kMESF), higher = increase: 3.91 kMESF (inactive)

## O=C(O)c1cccc(S(=O)(=O)Nc2ccc(S(=O)(=O)N3CCOCC3)cc2)c1
  GFP fluorescence (kMESF), higher = increase: 2.77 kMESF (inactive)

## CC1=C(C)/C(=N\OS(=O)(=O)c2ccc(C)cc2)C=CC1=O
  GFP fluorescence (kMESF), higher = increase: 4.38 kMESF (inactive)

## O=C(CS(=O)c1ccccc1[N+](=O)[O-])Oc1ccc(Br)cc1 (centres undefined)
  GFP fluorescence (kMESF), higher = increase: 4.43 kMESF (inactive)

## Cc1ccc(/C=c2\sc3nc(-c4cccs4)nn3c2=O)o1
  GFP fluorescence (kMESF), higher = increase: 8.12 kMESF (inactive)

## O=C(c1ccc(Cl)c([N+](=O)[O-])c1)N1CCN(c2ccccc2)CC1
  GFP fluorescence (kMESF), higher = increase: 2.46 kMESF (inactive)

## CCN(CC)C(=S)SSC(=S)N(CC)CC
  GFP fluorescence (kMESF), higher = increase: 5.19 kMESF (inactive)

## C=CCOc1ccccc1C(=O)/C=C1/C(=O)Nc2ccccc21
  GFP fluorescence (kMESF), higher = increase: 3.91 kMESF (inactive)

## O=c1[nH]c(-c2ccc(Cl)cc2)cs1
  GFP fluorescence (kMESF), higher = increase: 1.62 kMESF (inactive)

## CC1(C)OC(c2ccccc2)=C/C(=C/C=C2C(=O)NC(=S)NC2=O)O1
  GFP fluorescence (kMESF), higher = increase: 2.7 kMESF (inactive)

## CC(C)C[C@]1(c2ccccc2)ON(c2ccccc2C(F)(F)F)C1=O
  GFP fluorescence (kMESF), higher = increase: 2.97 kMESF (inactive)

## O=c1oc2cc(Oc3c([N+](=O)[O-])cc(C(F)(F)F)cc3[N+](=O)[O-])ccc2c2c1CCCC2
  GFP fluorescence (kMESF), higher = increase: 4.77 kMESF (inactive)

## O=C1NC(=S)NC(=O)C1=Cc1ccc2c(c1)CCN2CCCCl
  GFP fluorescence (kMESF), higher = increase: 4.18 kMESF (inactive)

## O=C1N(c2ccccc2C(F)(F)F)O[C@@]1(c1ccccc1)C1CCCC1
  GFP fluorescence (kMESF), higher = increase: 2.17 kMESF (inactive)

## O=C(/C=C/c1cccc([N+](=O)[O-])c1)c1ccc([N+](=O)[O-])o1
  GFP fluorescence (kMESF), higher = increase: 3.51 kMESF (inactive)

## O=C1C2C3C=CC(CO)(O3)C2C(=O)N1c1ccccc1-c1ccccc1 (centres undefined)
  GFP fluorescence (kMESF), higher = increase: 5.17 kMESF (inactive)

## COc1cc(N2C(=O)C=CC2=O)c(OC)cc1Cl
  GFP fluorescence (kMESF), higher = increase: 3.78 kMESF (inactive)

## CC(C)[C@]1(c2ccccc2)ON(c2ccccc2C(F)(F)F)C1=O
  GFP fluorescence (kMESF), higher = increase: 2.87 kMESF (inactive)

## O=C1C(Cl)=C(N2CCN(Cc3ccccc3)CC2)C(=O)N1c1ccccc1
  GFP fluorescence (kMESF), higher = increase: 3.31 kMESF (inactive)

## O=C(NC(=S)NNC(=O)[C@H]1C[C@@H]1c1ccccc1)c1cccc(F)c1
  GFP fluorescence (kMESF), higher = increase: 7.02 kMESF (inactive)

## Clc1cccc(CN2COc3c(cc(Cl)c4cccnc34)C2)c1
  GFP fluorescence (kMESF), higher = increase: 8.07 kMESF (inactive)

## O=C1N(c2ccccc2C(F)(F)F)O[C@@]1(c1ccccc1)C1CCCCC1
  GFP fluorescence (kMESF), higher = increase: 2.87 kMESF (inactive)

## CCCc1cc(=O)oc2cc(C)cc(OCC(=O)NC3CC3)c12
  GFP fluorescence (kMESF), higher = increase: 1.67 kMESF (inactive)

## O=C(NC(=S)NNC(=O)c1cnccn1)c1ccc(Cl)cc1
  GFP fluorescence (kMESF), higher = increase: 3.51 kMESF (inactive)

## CC(=O)c1ccc(N2CCN(C(=O)c3ccc(Br)cc3)CC2)c(F)c1
  GFP fluorescence (kMESF), higher = increase: 2.85 kMESF (inactive)

## Cc1ccc(C(=O)O)cc1N=Cc1cc(Br)cc(Br)c1O
  GFP fluorescence (kMESF), higher = increase: 5.7 kMESF (inactive)

## Cc1ccc(C(=O)NNC(=S)NC(=O)c2ccco2)cc1
  GFP fluorescence (kMESF), higher = increase: 4.91 kMESF (inactive)

## CC1=C/C(=N\OS(=O)(=O)c2ccccc2)C(C)=CC1=O
  GFP fluorescence (kMESF), higher = increase: -2.25 kMESF (inactive)

## COc1cccc(/C=C/C(=O)c2c(O)cc(C)oc2=O)c1O
  GFP fluorescence (kMESF), higher = increase: 4.26 kMESF (inactive)

## O=S1(=O)C=C(Sc2nc3ccccc3s2)c2ccccc21
  GFP fluorescence (kMESF), higher = increase: 5.18 kMESF (inactive)

## O=C(OCC(=O)N1CCN(C(=O)c2ccco2)CC1)c1cc(-c2cccc(Br)c2)nc2ccccc12
  GFP fluorescence (kMESF), higher = increase: 4.47 kMESF (inactive)

## CC(Oc1ccc(Cl)cc1)C(=O)NNC(=S)NC(=O)c1ccco1 (centres undefined)
  GFP fluorescence (kMESF), higher = increase: 5.05 kMESF (inactive)

## Nc1ccc2ccc3cccc[n+]3c2c1
  GFP fluorescence (kMESF), higher = increase: 5.03 kMESF (inactive)

## Cc1ccc(/C=C/C(=O)c2ccc([N+](=O)[O-])o2)cc1
  GFP fluorescence (kMESF), higher = increase: 3.92 kMESF (inactive)

## O=[N+]([O-])c1ccc(O)c(/C=N/Nc2ccccn2)c1
  GFP fluorescence (kMESF), higher = increase: 5.62 kMESF (inactive)

## CCOc1ccc(NC2=C(Cl)C(=O)N(Cc3ccccc3)C2=O)cc1
  GFP fluorescence (kMESF), higher = increase: 3.61 kMESF (inactive)

## Cc1cccc(NC(c2ccc(C)s2)c2ccc3ccc(C)nc3c2O)n1 (centres undefined)
  GFP fluorescence (kMESF), higher = increase: 8.62 kMESF (inactive)

## C[C@@]12C(=O)OC(=O)[C@]1(C)C1CCC2O1
  GFP fluorescence (kMESF), higher = increase: 3.51 kMESF (inactive)

## CC(C)[C@]1(c2ccc(Cl)cc2)ON(c2ccccc2C(F)(F)F)C1=O
  GFP fluorescence (kMESF), higher = increase: 2.37 kMESF (inactive)

## O=C(OCC(=O)N1CCN(C(=O)c2ccco2)CC1)c1cc(-c2ccc(Cl)c(Cl)c2Cl)nc2ccccc12
  GFP fluorescence (kMESF), higher = increase: 4.51 kMESF (inactive)

## CC(=O)Oc1ccc(N2C(=O)C3C4C=CC(CO)(O4)C3C2=O)cc1 (centres undefined)
  GFP fluorescence (kMESF), higher = increase: 3.1 kMESF (inactive)

## O=C(OCn1ncc(Br)c(Br)c1=O)c1ccccc1Cl
  GFP fluorescence (kMESF), higher = increase: 4.8 kMESF (inactive)

## CCCc1ccc(OCC(=O)NNC(=S)NC(=O)c2ccco2)cc1
  GFP fluorescence (kMESF), higher = increase: 9.05 kMESF (inactive)

## COc1ccc(/C=C/C(=O)NC(=S)NNC(=O)c2cnccn2)cc1
  GFP fluorescence (kMESF), higher = increase: 3.67 kMESF (inactive)

## O=C(O)/C=C/C(=O)c1ccc2c(c1)CCc1ccccc1-2
  GFP fluorescence (kMESF), higher = increase: 4.6 kMESF (inactive)

## Cc1ccccc1[C@]1(C)ON(c2ccccc2C(F)(F)F)C1=O
  GFP fluorescence (kMESF), higher = increase: 2.17 kMESF (inactive)

## CCc1ccc2c(c1)/C(=C/C(=O)c1cccs1)C(=O)N2
  GFP fluorescence (kMESF), higher = increase: 3.95 kMESF (inactive)

## COc1ccc(OC)c(S(=O)(=O)ON2C(=O)c3ccccc3C2=O)c1
  GFP fluorescence (kMESF), higher = increase: -8.29 kMESF (inactive)

## O=C(O)C1Sc2[nH]c(=O)sc2C2c3cc(Br)ccc3OC(=O)C12 (centres undefined)
  GFP fluorescence (kMESF), higher = increase: 4.8 kMESF (inactive)

## COc1cc(N=c2ssnc2Cl)c(OC)cc1Cl
  GFP fluorescence (kMESF), higher = increase: 6.31 kMESF (inactive) and 6.98 kMESF (inactive)

## CCOC(=O)/C(=C\c1cn(C)c2ccccc12)[N+](=O)[O-]
  GFP fluorescence (kMESF), higher = increase: 6.34 kMESF (inactive)

## CC(=O)N(\C=C/C=C/C=C1\Sc2ccccc2C1=O)c1ccccc1
  GFP fluorescence (kMESF), higher = increase: 8.76 kMESF (inactive)

## O=C(NC(=S)Nc1ccc2oc(=O)ccc2c1)c1cccc(Cl)c1
  GFP fluorescence (kMESF), higher = increase: 1.7 kMESF (inactive)

## O=C(NC(=S)NNC(=O)c1cnccn1)c1ccc(F)cc1
  GFP fluorescence (kMESF), higher = increase: 4.26 kMESF (inactive)

## COc1cc(/C=C2\C(=O)ON=C2c2ccccc2)cc(Br)c1O
  GFP fluorescence (kMESF), higher = increase: 4.31 kMESF (inactive)

## O=C1C=C(c2ccc(Cl)cc2)C(=O)N1Nc1ccccc1
  GFP fluorescence (kMESF), higher = increase: 5.31 kMESF (inactive)

## O=S(=O)(/N=C(/Sc1ccccc1)c1ccccc1)c1ccccc1
  GFP fluorescence (kMESF), higher = increase: 4.43 kMESF (inactive)

## Cc1sc(/C=C2\C(=O)ON=C2c2ccccc2)cc1Br
  GFP fluorescence (kMESF), higher = increase: 1.67 kMESF (inactive)

## COc1ccc(N/N=C(\C#N)C(N)=O)cc1
  GFP fluorescence (kMESF), higher = increase: 1.24 kMESF (inactive)

## CN(Cc1cnc2nc(N)nc(N)c2n1)c1ccc(C(=O)N[C@@H](CCC(=O)O)C(=O)O)cc1
  GFP fluorescence (kMESF), higher = increase: 2.67 kMESF (inactive) and 1.92 kMESF (inactive)

## Cc1ccc(C(=O)Oc2oc(-c3ccccc3)nc2C=Nc2ccc(N(C)C)cc2)cc1
  GFP fluorescence (kMESF), higher = increase: 4.19 kMESF (inactive)

## Cc1cc(O)c(C(=O)/C=C/c2ccc(Cl)cc2)c(=O)o1
  GFP fluorescence (kMESF), higher = increase: 4.13 kMESF (inactive)

## COc1ccc(N2C(=O)C(Cl)=C(NCc3ccccc3)C2=O)cc1
  GFP fluorescence (kMESF), higher = increase: 3.91 kMESF (inactive)

## O=C(Nc1nc(-c2ccccn2)cs1)c1cc2ccccc2o1
  GFP fluorescence (kMESF), higher = increase: 5.47 kMESF (inactive)

## Cc1ccc(N=c2ssnc2Cl)cc1
  GFP fluorescence (kMESF), higher = increase: 4.79 kMESF (inactive)

## COc1ccccc1NC1=C(Cl)C(=O)N(c2ccccc2)C1=O
  GFP fluorescence (kMESF), higher = increase: 2.07 kMESF (inactive)

## O=c1cc(-c2ccccc2)cc(-c2ccccc2)n1O
  GFP fluorescence (kMESF), higher = increase: 4.49 kMESF (inactive)

## COc1cc(/C=C2\C(=O)ON=C2c2ccc(Cl)cc2)ccc1O
  GFP fluorescence (kMESF), higher = increase: 3.71 kMESF (inactive)

## O=C(NOC(=O)c1ccccc1)c1ccccc1
  GFP fluorescence (kMESF), higher = increase: 5.42 kMESF (inactive)

## CCn1c(=O)c(C(=O)Nc2nc3ccccc3[nH]2)c(O)c2ccccc21
  GFP fluorescence (kMESF), higher = increase: 2.38 kMESF (inactive)

## CCCc1cc(N2CCN(c3ccccn3)CC2)n2nc(C)c(-c3ccccc3)c2n1
  GFP fluorescence (kMESF), higher = increase: 3.11 kMESF (inactive)

## O=C(Nc1ccc(NC(=O)c2cc3ccccc3o2)cc1)c1ccc2c(c1)OCCO2
  GFP fluorescence (kMESF), higher = increase: 2.4 kMESF (inactive)

## Cc1cc(C)c(C)c(S(=O)(=O)ON2C(=O)c3ccccc3C2=O)c1C
  GFP fluorescence (kMESF), higher = increase: 4.23 kMESF (inactive)

## O=C1C(Cl)=C(NCCc2ccccc2)C(=O)N1CCc1ccccc1
  GFP fluorescence (kMESF), higher = increase: 2.91 kMESF (inactive)

## Oc1ccc2ccccc2c1/C=N/Nc1nnc(-c2ncc[nH]2)c2ccccc12
  GFP fluorescence (kMESF), higher = increase: -21.2 kMESF (inactive)

## c1ccc(-c2cccc(-c3ccccn3)n2)nc1
  GFP fluorescence (kMESF), higher = increase: 2.86 kMESF (inactive)

## O=C(C#Cc1ccccc1)c1ccco1
  GFP fluorescence (kMESF), higher = increase: 5.37 kMESF (inactive)

## COc1cc(/C=C2\C(=O)ON=C2c2ccccc2)cc(OC)c1OC
  GFP fluorescence (kMESF), higher = increase: 3.21 kMESF (inactive)

## N/C(=N\OC(=O)c1ccc(Cl)cc1Cl)c1ccccc1
  GFP fluorescence (kMESF), higher = increase: 3.21 kMESF (inactive)

## CCN(CC)C(=O)Oc1ccnc2cc(Cl)ccc12
  GFP fluorescence (kMESF), higher = increase: 11.7 kMESF (inactive)

## COc1ccc(N=Nc2ccc(O)c3ncccc23)cc1
  GFP fluorescence (kMESF), higher = increase: 4.94 kMESF (inactive)

## CC(C)(C)c1cc(C(c2cccnc2)N2CCN(CCO)CC2)cc(C(C)(C)C)c1O (centres undefined)
  GFP fluorescence (kMESF), higher = increase: -4.66 kMESF (inactive)
